Assay results: patent US20150353495A1 (PORTOLA PHARMACEUTICALS, INC., priority 2010, published 2015)

Columns and labels:
Format in all cases: biochemical
JAK1 = target: T1, JAK1 (Homo sapiens, UniProt P23458); assay: Z'-LYTE kinase assay JAK1
T1 construct: 5 μl of catalytic domain recombinant Kinase enzyme+Tyr peptide substrate (Invitrogen, CA); purchased Invitrogen
Outline: (§1)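 Z′-LYTE FRET, Tyr6 peptide, recombinant catalytic domain + ATP, 1 h RT, 1% DMSO final, duplicates; protease development 1 h RT; fluorescence read.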

JAK2 = target: T2, JAK2 (Homo sapiens, UniProt O60674); assay: Z'-LYTE kinase assay JAK2
T2 construct: 5 μl of catalytic domain recombinant Kinase enzyme+Tyr peptide substrate (Invitrogen, CA); purchased Invitrogen
T2 sequence (O60674 849-1124 limits assumed): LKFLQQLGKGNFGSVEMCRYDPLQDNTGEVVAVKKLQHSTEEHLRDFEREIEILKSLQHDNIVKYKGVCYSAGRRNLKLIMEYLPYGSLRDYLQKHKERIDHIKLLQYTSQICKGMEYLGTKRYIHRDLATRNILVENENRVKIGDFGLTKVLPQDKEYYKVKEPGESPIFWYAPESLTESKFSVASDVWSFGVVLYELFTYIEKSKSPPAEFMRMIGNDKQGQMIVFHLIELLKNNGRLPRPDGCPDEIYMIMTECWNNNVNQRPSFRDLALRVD
Outline: as §1

JAK3 = target: T3, JAK3 (Homo sapiens, UniProt P52333); assay: Z'-LYTE kinase assay JAK3
T3 construct: 5 μl of catalytic domain recombinant Kinase enzyme+Tyr peptide substrate (Invitrogen, CA); purchased Invitrogen
T3 sequence (P52333 822-1111 limits assumed): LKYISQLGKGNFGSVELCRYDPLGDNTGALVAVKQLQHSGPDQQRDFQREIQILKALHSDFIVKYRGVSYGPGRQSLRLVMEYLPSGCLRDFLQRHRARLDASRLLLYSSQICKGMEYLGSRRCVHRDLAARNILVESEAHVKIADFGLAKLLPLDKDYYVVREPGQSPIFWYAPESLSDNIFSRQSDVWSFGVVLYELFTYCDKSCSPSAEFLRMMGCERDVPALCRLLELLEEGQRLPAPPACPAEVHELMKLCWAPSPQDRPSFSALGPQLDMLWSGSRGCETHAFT
Outline: as §1

T1 sequence (P23458 875-1153 limits assumed): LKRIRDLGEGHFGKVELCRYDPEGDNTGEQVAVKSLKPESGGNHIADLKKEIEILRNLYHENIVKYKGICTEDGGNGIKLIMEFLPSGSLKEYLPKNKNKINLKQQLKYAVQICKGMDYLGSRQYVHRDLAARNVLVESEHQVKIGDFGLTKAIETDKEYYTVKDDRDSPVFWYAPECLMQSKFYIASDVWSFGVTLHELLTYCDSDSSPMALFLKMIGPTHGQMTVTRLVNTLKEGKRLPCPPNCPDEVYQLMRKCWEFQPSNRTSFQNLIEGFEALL

| SMILES | IC50 (JAK1) | IC50 (JAK2) | IC50 (JAK3) |
| --- | --- | --- | --- |
| NC(=O)c1cnc(Nc2ccc(C3CCOCC3)cc2)cc1NC1CCCC1 [Example 150, 4-(cyclopentylamino)-6-(4-(tetrahydro-2H-pyran-4-yl)phenylamino)nicotinamide] | 100 to 1000 nM | 100 to 1000 nM | 100 to 1000 nM |
| CN(C)C(=O)c1ccc(Nc2cc(NCc3cccc4c3ccn4C)c(C(N)=O)cn2)cc1 [Example 304, 6-(4-(dimethylcarbamoyl)phenylamino)-4-((1-methyl-1H-indol-4-yl)methylamino)nicotinamide] | 100 to 1000 nM | 100 to 1000 nM | 1 to 10 nM |
| N#Cc1ccc(Nc2cc(NCc3ccccc3)c(C(N)=O)cn2)cc1C#N [Example 393] | > 1000 nM | > 1000 nM | > 1000 nM |
| CC(=O)Nc1ccc(Nc2cc(NCc3cncc(F)c3)c(C(N)=O)cn2)cc1 [Example 484, 6-(4-acetamidophenylamino)-4-((5-fluoropyridin-3-yl)methylamino)nicotinamide] | 100 to 1000 nM | 100 to 1000 nM | 1 to 10 nM |
| COc1ccc(Nc2cc(NC[C@H]3CCCNC3)c(C(N)=O)cn2)cc1 [Example 270, (S)-6-(4-methoxyphenylamino)-4-(piperidin-3-ylmethylamino)nicotinamide] | 100 to 1000 nM | > 1000 nM | 100 to 1000 nM |
| CN(C)S(=O)(=O)Cc1ccc(Nc2cc(NCc3cccc(-c4ccncc4)c3)c(C(N)=O)cn2)cc1 [Example 417, 6-(4-((N,N-dimethylsulfamoyl)methyl)phenylamino)-4-(3-(pyridine-4-yl)benzylamino)nicotinamide] | 100 to 1000 nM | 100 to 1000 nM | 1 to 10 nM |
| CN(C)C(=O)c1ccc(Nc2cc(NCc3cccc(F)n3)c(C(N)=O)cn2)cc1 [Example 316, 6-(4-(dimethylcarbamoyl)phenylamino)-4-((6-fluoropyridin-2-yl)methylamino)nicotinamide] | 100 to 1000 nM | 100 to 1000 nM | 1 to 10 nM |
| CC(=O)N(C)c1ccc(Nc2cc(NCc3cccc(F)n3)c(C(N)=O)cn2)cc1 [Example 485, 4-((6-fluoropyridin-2-yl)methylamino)-6-(4-(N-methylacetamido)phenylamino)nicotinamide] | > 1000 nM | 100 to 1000 nM | 10 to 100 nM |
| COc1ccc(Nc2cc(NCC3CCN(C(C)=O)CC3)c(C(N)=O)cn2)cc1 [Example 35, 4-((1-acetylpiperidin-4-yl)methylamino)-6-(4-methoxyphenylamino)nicotinamide] | > 1000 nM | > 1000 nM | > 1000 nM |
| NC(=O)c1cnc(Nc2ccc(C3CCN(CC(F)F)CC3)cc2)cc1NCc1cccc(F)c1F [Example 216, 4-(2,3-difluorobenzylamino)-6-(4-(1-(2,2-difluoroethyl)piperidin-4-yl)phenylamino)nicotinamide] | > 1000 nM | > 1000 nM | 10 to 100 nM |
| COC(=O)N1CCC[C@@H](CNc2cc(Nc3ccc(OC)cc3)ncc2C(N)=O)C1 [Example 52, (S)-methyl 3-((5-carbamoyl-2-(4-methoxyphenylamino)pyridin-4-ylamino)methyl)piperidine-1-carboxylate] | > 1000 nM | > 1000 nM | 100 to 1000 nM |
| NC(=O)c1cnc(Nc2cccc(C3CCOCC3)c2)cc1NCc1cccc(F)c1 [Example 204, 4-(3-fluorobenzylamino)-6-(3-(tetrahydro-2H-pyran-4-yl)phenylamino)nicotinamide] | 100 to 1000 nM | 10 to 100 nM | 1 to 10 nM |
| CS(=O)(=O)Cc1ccc(Nc2cc(NCc3ccccc3)c(C(N)=O)cn2)cc1 [Example 347, 4-(benzylamino)-6-(4-(methylsulfonylmethyl)phenylamino)nicotinamide] | 100 to 1000 nM | 100 to 1000 nM | 1 to 10 nM |
| COCC(=O)N1CCC[C@H](CNc2cc(Nc3ccc(OC)cc3)ncc2C(N)=O)C1 [Example 55, (R)-4-((1-(2-methoxyacetyl)piperidin-3-yl)methylamino)-6-(4-methoxyphenylamino)nicotinamide] | > 1000 nM | > 1000 nM | 10 to 100 nM |
| CN(C)C(=O)c1ccc(Nc2cc(NCc3cccc(-n4cccn4)c3)c(C(N)=O)cn2)cc1 [Example 422, 4-(3-(1H-pyrazol-1-yl)benzylamino)-6-(4-(dimethylcarbamoyl)phenylamino)nicotinamide] | > 1000 nM | 100 to 1000 nM | 10 to 100 nM |
| NC(=O)c1cnc(Nc2ccc(C3CCOCC3)cc2)cc1NCc1ccncn1 [Example 181, 4-(pyrimidin-4-ylmethylamino)-6-(4-(tetrahydro-2H-pyran-4-yl)phenylamino)nicotinamide] | > 1000 nM | > 1000 nM | > 1000 nM |
| CC(=O)Nc1ccc(Nc2cc(NCc3cccc(F)n3)c(C(N)=O)cn2)cc1 [Example 486, 6-(4-acetamidophenylamino)-4-((6-fluoropyridin-2-yl)methylamino)nicotinamide] | 100 to 1000 nM | 100 to 1000 nM | 10 to 100 nM |

| SMILES | IC50 (JAK1) | IC50 (JAK2) | IC50 (JAK3) |
| --- | --- | --- | --- |
| NC(=O)c1cnc(Nc2ccc(C3CCOCC3)cc2)cc1NCc1ccccn1 [Example 174, 4-(pyridin-2-ylmethylamino)-6-(4-(tetrahydro-2H-pyran-4-yl)phenylamino)nicotinamide] | > 1000 nM | 100 to 1000 nM | 10 to 100 nM |
| COc1ccc(Nc2cc(NCc3ccccc3)c(C(N)=O)cn2)cc1OC [Example 293, 4-(benzylamino)-6-(3,4-dimethoxyphenylamino)nicotinamide] | 100 to 1000 nM | 100 to 1000 nM | 10 to 100 nM |
| NC(=O)c1cnc(Nc2ccc(C3CCOCC3)cc2)cc1NCC1(O)CCCC1 [Example 141, 4-((1-hydroxycyclopentyl)methylamino)-6-(4-(tetrahydro-2H-pyran-4-yl)phenylamino)nicotinamide] | > 1000 nM | 100 to 1000 nM | 10 to 100 nM |
| CN(C)C(=O)C1CCN(c2ccc(Nc3cc(NCc4cccc5[nH]ccc45)c(C(N)=O)cn3)cc2)CC1 [Example 345, 4-((1H-indol-4-yl)methylamino)-6-(4-(4-(dimethylcarbamoyl)piperidin-1-yl)phenylamino)nicotinamide] | 1 to 10 nM | 1 to 10 nM | < 1 nM |
| CC(=O)N1CC(c2ccc(Nc3cc(NCc4ccccc4)c(C(N)=O)cn3)cc2)C1 [Example 324, 6-(4-(1-acetylazetidin-3-yl)phenylamino)-4-(benzylamino)nicotinamide] | 100 to 1000 nM | 100 to 1000 nM | 1 to 10 nM |
| NC(=O)c1cnc(Nc2ccc(N3CCN(c4ccccn4)CC3)cc2)cc1NCc1cccc2[nH]ccc12 [Example 402] | 10 to 100 nM | 10 to 100 nM | 1 to 10 nM |
| CCC(=O)N1CCC(c2ccc(Nc3cc(NCc4nccs4)c(C(N)=O)cn3)cc2)CC1 [Example 177, 6-(4-(1-propionylpiperidin-4-yl)phenylamino)-4-(thiazol-2-ylmethylamino)nicotinamide] | 100 to 1000 nM | 100 to 1000 nM | 10 to 100 nM |
| CN(C)C(=O)c1ccc(Nc2cc(NCc3ccccc3)c(C(N)=O)cn2)cc1C(F)(F)F [Example 272, 4-(benzylamino)-6-(4-(dimethylcarbamoyl)-3-(trifluoromethyl)phenylamino)nicotinamide] | > 1000 nM | > 1000 nM | 10 to 100 nM |
| CN(C)C(=O)c1ccc(Nc2cc(NCc3cncc(F)c3)c(C(N)=O)cn2)cc1 [Example 312, 6-(4-(dimethylcarbamoyl)phenylamino)-4-((5-fluoropyridin-3-yl)methylamino)nicotinamide] | 100 to 1000 nM | 100 to 1000 nM | 1 to 10 nM |
| CN(C(=O)C1CC1)c1ccc(Nc2cc(NCc3cccc4cc[nH]c34)c(C(N)=O)cn2)cc1 [Example 478, 4-((1H-indol-7-yl)methylamino)-6-(4-(N-methylcyclopropanecarboxamido)phenylamino)nicotinamide] | > 1000 nM | 100 to 1000 nM | 100 to 1000 nM |
| CCC(=O)N1CCC(c2ccc(Nc3cc(NCC4CCCC4)c(C(N)=O)cn3)cc2)CC1 [Example 176, 4-(cyclopentylmethylamino)-6-(4-(1-propionylpiperidin-4-yl)phenylamino)nicotinamide] | 100 to 1000 nM | 100 to 1000 nM | 10 to 100 nM |
| CC(=O)Nc1cccc(Nc2cc(NC3(c4ccccc4)CC3)c(C(N)=O)cn2)c1 [Example 135, 6-(3-acetamidophenylamino)-4-(1-phenylcyclopropylamino)nicotinamide] | > 1000 nM | > 1000 nM | 100 to 1000 nM |
| CC(=O)N1CC(c2ccc(Nc3cc(NCc4cncc(F)c4)c(C(N)=O)cn3)cc2)C1 [Example 334, 6-(4-(1-acetylazetidin-3-yl)phenylamino)-4-((5-fluoropyridin-3-yl)methylamino)nicotinamide] | 100 to 1000 nM | 100 to 1000 nM | 10 to 100 nM |
| CC(=O)N1CCN(c2ccc(Nc3ncc(C(N)=O)c(NCc4cccc(F)c4)c3Cl)cc2)CC1 [Example 376] | > 1000 nM | > 1000 nM | 100 to 1000 nM |
| CS(=O)(=O)c1ccc(Nc2cc(NCc3cccc(-c4ccncc4)c3)c(C(N)=O)cn2)cc1 [Example 413, 6-(4-(methylsulfonyl)phenylamino)-4-(3-(pyridine-4-yl)benzylamino)nicotinamide] | > 1000 nM | > 1000 nM | 10 to 100 nM |
| CN(C)C(=O)N1CCC(Nc2cc(Nc3ccc(C4CCOCC4)cc3)ncc2C(N)=O)CC1 [Example 163, 4-(1-(dimethylcarbamoyl)piperidin-4-ylamino)-6-(4-(tetrahydro-2H-pyran-4-yl)phenylamino)nicotinamide] | > 1000 nM | > 1000 nM | 100 to 1000 nM |
